Consider 5 molecules from PMC8389907 (Journal of Medicinal Chemistry, 2021).

The IC50 is the concentration at which inhibition is half-maximal. The term MIC denotes the least concentration at which growth counts as inhibited. The melting point is the temperature of the solid-liquid transition.

One data set has as its system HBL100 cells. The data set is described as follows: MTT cell viability assay, non-tumorigenic HBL100. It is filed as cell-based. The note with it: Homo sapiens, HBL-100, 72 h treatment. The protocol:
(§1) The 3-(4,5-dimethylthiazol-2-yl)-2,5-diphenyltetrazolium bromide (MTT) assay was performed on all the cell lines tested as previously described[52] with minor modifications. Briefly, according to the growth profiles previously defined for each cell line, adequate numbers of cells were plated in each well of a 96-well plate in 0.1 mL of complete culture medium. Cells were allowed to attach for 24 h before the treatment at 37 °C for 72 h with the compounds at concentrations ranging between 0.1 and 75 μM, bringing the final volume to 0.2 mL/well. Each experiment included eight replications per concentration tested; control samples were run with 0.2% DMSO. At the end of the incubation period, MTT (0.05 mL of a 2 mg/mL stock solution in PBS) was added to each well for 3 h at 37 °C. Cell supernatants were then carefully removed, the blue formazan crystals formed through MTT reduction by metabolically active cells were dissolved in 0.120 mL of DMSO, and the corresponding optical densities were measured at 570 nm using a Universal Microplate Reader EL800 (Bio-Tek, Winooski, VT).
(§2) IC50 values were estimated from the resulting concentration–response curves by nonlinear regression analysis using GraphPad Prism software, v. 5.0 (GraphPad, San Diego, CA, USA). Differences between IC50 values were evaluated statistically by analysis of variance with a Bonferroni post-test for multiple comparisons.
(Tetrazolium assays rely on reduction of a dye to a coloured formazan, in cell work by metabolically active cells.)

The subject of another data set is MDA-MB231 cells. The data set is described as follows: MTT cell viability assay, MDA-MB231. It is filed as cell-based. The note with it: Homo sapiens, MDA-MB-231. The protocol:
(§3) The cell lines DU145 (HTB-81, human prostate carcinoma), PC3 (CRL-1435, human prostate adenocarcinoma), MCF7 (HTB-22, human breast adenocarcinoma), MDA-MB231 (HTB-26, human breast adenocarcinoma), and HCT116 (CCL-247, human colorectal carcinoma) were obtained from ATCC (American Type Culture Collection, Manassas, VA, USA); WH1 human fibroblasts were kindly provided by Dr. Guven.[51] All the cells were maintained under standard culture conditions (37 °C; 5% CO2) in the RMPI1640 medium (PC3, MCF7, and MDA-MB231 cells), while DU145 and HCT116 cells were in the DMEM and Iscove’s medium (WH1 cells) supplemented with 10% fetal calf serum, 1% glutamine, and 1% antibiotics mixture; for HCT116 and DU145 cells, 1% sodium pyruvate and 1% non-essential amino acids were also added to the culture medium.
as §1, §2

For data set [1], the system named is DU145 cells. The data set is described as follows: MTT assay with 1 h irradiation, DU145. The note with it: 24 h treatment, 1 h white or blue light, 48 h drug-free medium. It counts as cell-based, human. The protocol:
(§4) To evaluate the contribution of NO release on cell viability, the MTT assay was performed on DU145 and PC3 cells following treatment with 7b and 7c with 1 h irradiation and 48 h incubation in a drug-free medium.
as §2

The test system of another data set is WH1 human fibroblasts. The data set is described as follows: MTT cell viability assay, WH1 fibroblasts. It is filed as cell-based. The note with it: Fibroblast, 72 h treatment. The protocol:
as §3, §1, §2

The subject of another data set is HCT116 cells. The data set is described as follows: MTT cell viability assay, HCT116. It is filed as cell-based. The note with it: Homo sapiens, HCT-116. As for the experimental part:
as §3, §1, §2

Data set [2] deals with DU145 cells. The data set is described as follows: MTT cell viability assay, DU145. It counts as cell-based. The note with it: Homo sapiens, DU-145. The protocol:
as §3, §1, §2

The subject of data set [3] is PC3 cells. The data set is described as follows: MTT assay with 1 h irradiation, PC3. It counts as cell-based, human. The note with it: 24 h treatment, 1 h white or blue light, 48 h drug-free medium. As for the experimental part:
as §4, §2

The subject of data set [4] is PC3 cells. The data set is described as follows: MTT cell viability assay, PC3. It counts as cell-based. The note with it: Homo sapiens, PC-3. As for the experimental part:
as §3, §1, §2

A further data set has as its system MCF7/ADR cells. The data set is described as follows: MTT cell viability assay, DOX-resistant MCF7/ADR. It is filed as cell-based, human. The note with it: for IC50: Homo sapiens, NCI/ADR-RES, 72 h treatment, MTT; for R.I. (resistance index): MCF7/ADR vs MCF7. As for the experimental part:
as §1, §2

Another data set deals with MCF7 cells. The data set is described as follows: MTT cell viability assay, MCF7. The note with it: Homo sapiens, 72 h treatment, MTT, read-out: IC50 MCF7. It is filed as cell-based. As for the experimental part:
as §3, §1, §2

Data set [5] has as its system P. aeruginosa PAO1. The data set is described as follows: Minimum inhibitory concentration, broth dilution. The note with it: Pseudomonas aeruginosa; 24 h incubation at 37 °C, strain PAO1. It is filed as cell-based. As for the experimental part: P. aeruginosa PAO1 was chosen as a model microorganism[53] and was grown overnight in a Luria Bertani (LB) medium at 37 °C on an orbital shaker at 200 rpm. Minimum inhibitory concentrations (MICs) of quinolone and quinolone derivatives were determined against P. aeruginosa PAO1 by a broth dilution method. Overnight cultures were diluted 100-fold to give a cellular concentration of 10^7 CFU/mL. […] The assays were performed at least three times.
In general terms: Dilution methods test growth across graded concentrations, often in twofold steps.

Data set [6] has as its system P. aeruginosa PAO1. The data set is described as follows: Antimicrobial photo-inactivation test, P. aeruginosa. The note with it: 10 μM, 10 min dark incubation, 405 ± 10 nm, 20 J/cm^2. It is filed as cell-based, Pseudomonas aeruginosa. As for the experimental part:
(§5) Upon the overnight growth of P. aeruginosa PAO1 and S. aureus ATCC6538P (methicillin susceptible S. aureus, MSSA), cultures were diluted in phosphate buffer (PBS–KH2PO4/K2HPO4, 10 mM, pH 7.4) to reach a concentration of ∼10^6 CFU/mL. Compound 7c was added to a cell suspension at a final concentration of 10 μM. Cells were incubated in the dark for 10 min and then irradiated under light at […] (20 J/cm^2) or incubated in the dark as a control. Soon after irradiation, the bacterial concentration was evaluated by the viability count technique. Briefly, an aliquot of each sample was 10-fold serially diluted in PBS and a volume of 10 μL of each diluted and undiluted sample was inoculated on LB agar. After overnight incubation at 37 °C, the corresponding cellular concentration was calculated and expressed as CFU/mL.

The next data set has as its system S. aureus ATCC 6538P. The data set is described as follows: Antimicrobial photo-inactivation test, S. aureus. It counts as cell-based, Staphylococcus aureus. The note with it: 10 μM, 10 min dark incubation, blue light 20 J/cm^2. The protocol: as §5
Setting [7] is: 72 h treatment, MTT, read-out: IC50 MDA-MB231.
[8] abbreviates: supplement csv, unit inferred, read-out: MDA-MB231 IC50.
The mark [9] stands for this setting: 72 h treatment, MTT, read-out: IC50 HCT116.
Where [10] appears, read: 72 h treatment, MTT, read-out: IC50 DU145.
Setting [11] is: supplement csv, unit inferred, read-out: DU145 IC50.
The mark [12] stands for this setting: supplement csv, unit inferred, read-out: PC3 IC50.
Setting [13] is: 72 h treatment, MTT, read-out: IC50 PC3.
The mark [14] stands for this setting: supplement csv, unit inferred, read-out: HCT116 IC50.

In brackets after ≈: the same amount, converted by molar mass. Where two headings read alike, the source gives them in different places.

On to `O=C(O)c1cn(C2CC2)c2cc(N3CCN(CCCNc4ccc([N+](=O)[O-])c(C(F)(F)F)c4)CC3)c(F)cc2c1=O` [Compound 7b, 1-Cyclopropyl-6-fluoro-7-(4-(3-((4-nitro-3-(trifluoromethyl)phenyl)amino)propyl)piperazin-1-yl)-4-oxo-1,4-dihydroquinoline-3-carboxylic Acid], for which the IC50 in the data set on HBL100 cells is 9.19 ± 0.66 µM; with MDA-MB231 cells (setting [7]), under 2.5 µM; in the data set on MDA-MB231 cells (setting [8]), 2.51 ± 0.43 µM; in the data set on WH1 human fibroblasts it was 7.05 ± 1.2 µM; in the data set with HCT116 cells (setting [9]), 1.83 µM; with DU145 cells [2] (setting [10]), under 3 µM. For the same molecule, the IC50 worked out at 2.42 ± 0.9 µM with DU145 cells [2] (setting [11]), 3.02 ± 0.59 µM with PC3 cells [4] (setting [12]), 23.6 ± 3.6 µM with MCF7/ADR cells and 5.23 ± 0.82 µM with MCF7 cells. In addition, in the data set with DU145 cells [1], the “IC50, irradiated vs kept in the dark, DU145” value is “no differences in IC50 values”. In addition, the “IC50, irradiated vs kept in the dark, PC3” value with PC3 cells [3] is listed as “no differences in IC50 values”. In addition, the “R.I. (resistance index)” value with MCF7/ADR cells was found to be 4.5.

`CCn1cc(C(=O)O)c(=O)c2cc(F)c(N3CCNCC3)cc21` [Nor, Norfloxacin, reference compound]: the IC50 in the data set on HBL100 cells is 12.4 ± 0.8 µM; in the data set on MDA-MB231 cells (setting [7]), 14.9 ± 2.7 µM; with WH1 human fibroblasts, 14.1 ± 2.1 µM; with HCT116 cells (setting [9]), 12.5 ± 2.6 µM; in the data set on DU145 cells [2] (setting [10]), 12 ± 0.6 µM; in the data set on PC3 cells [4] (setting [13]), 33.6 ± 3 µM. Moreover, the IC50 with MCF7/ADR cells was determined as 20.1 ± 1.4 µM; in the data set with MCF7 cells, 19.4 ± 0.7 µM. In the data set on P. aeruginosa PAO1 [5], the MIC stood at 4.16 ± 1.8 µg/mL (≈ 13 µM). Further, in the data set on MCF7/ADR cells, the “R.I. (resistance index)” value is recorded as 1.0.

In the case of `O=C(O)c1cn(C2CC2)c2cc(N3CCNCC3)c(F)cc2c1=O` [Cip, Ciprofloxacin, reference compound], the IC50 is 19.9 ± 3.6 µM with MDA-MB231 cells (setting [7]); 31.5 ± 1.5 µM with HCT116 cells (setting [9]); 24.9 ± 0.8 µM in the data set with DU145 cells [2] (setting [10]); 33.9 ± 2.9 µM with PC3 cells [4] (setting [13]); 19.1 ± 0.5 µM in the data set on MCF7/ADR cells; 8.85 ± 0.09 µM with MCF7 cells. In the data set on P. aeruginosa PAO1 [5], this molecule returned a minimum inhibitory concentration (MIC) of 1.82 ± 1.19 µg/mL (≈ 5.49 µM).

On to `CCn1cc(C(=O)O)c(=O)c2cc(F)c(N3CCN(CCNc4ccc([N+](=O)[O-])c(C(F)(F)F)c4)CC3)cc21` [Compound 7c, 1-Ethyl-6-fluoro-7-(4-(2-((4-nitro-3-(trifluoromethyl)phenyl)amino)ethyl)piperazin-1-yl)-4-oxo-1,4-dihydroquinoline-3-carboxylic Acid], for which, in the data set on P. aeruginosa PAO1 [6], the “antimicrobial activity upon blue light irradiation” value is on record as “did not show any antimicrobial activity”. The IC50 in the data set on HBL100 cells was determined as 11.1 ± 0.2 µM; in the data set on MDA-MB231 cells (setting [7]) it was 1.52 µM; in the data set with WH1 human fibroblasts it was 3.51 ± 0.4 µM; in the data set with HCT116 cells (setting [14]) it was 2.15 ± 0.39 µM; with DU145 cells [2] (setting [11]) it was 1.57 ± 0.59 µM; in the data set on PC3 cells [4] (setting [13]) it was 2.33 µM. Besides, the IC50 worked out at 18.3 ± 1.4 µM in the data set with MCF7/ADR cells and 2.27 µM with MCF7 cells. Moreover, the “decrease in viable S. aureus with respect to the dark incubated control” value with S. aureus ATCC 6538P turned out to be 2 log unit. Besides, the “IC50, irradiated vs kept in the dark, DU145” value in the data set on DU145 cells [1] is on record as “no differences in IC50 values”. For the same molecule, in the data set on PC3 cells [3], the “IC50, irradiated vs kept in the dark, PC3” value is “no differences in IC50 values”. Further, in the data set with MCF7/ADR cells, the “R.I. (resistance index)” value is on record as 8.1.

On to `CCn1cc(C(=O)OC)c(=O)c2cc(F)c(N3CCN(CCCNc4ccc([N+](=O)[O-])c(C(F)(F)F)c4)CC3)cc21` [Compound 6d, Methyl 1-Ethyl-6-fluoro-7-(4-(3-((4-nitro-3-(trifluoromethyl)phenyl)amino)propyl)piperazin-1-yl)-4-oxo-1,4-dihydroquinoline-3-carboxylate], for which the melting point is 216 to 218 °C. Moreover, 3.68 ± 0.2 µM corresponded to half-maximal inhibition in the data set on HBL100 cells (IC50). In the data set on MDA-MB231 cells (setting [8]), the IC50 was 8.89 ± 1.65 µM. This molecule also displayed an IC50 with WH1 human fibroblasts of 9.67 ± 1.65 µM. The IC50 in the data set with HCT116 cells (setting [14]) came out at 11.7 ± 2.1 µM. The IC50 in the data set on DU145 cells [2] (setting [11]) was 5.49 ± 0.97 µM. The IC50 in the data set with PC3 cells [4] (setting [12]) is 4.1 ± 0.61 µM. Further, in the data set on MCF7/ADR cells, 28 ± 1.1 µM corresponded to half-maximal inhibition (IC50) and the “R.I. (resistance index)” value was 2.7. The IC50 in the data set on MCF7 cells came out at 10.5 ± 1.2 µM.
